Data as given in patent US10829497B2, “Crystal form II of thienopyridine derivative bisulfate and preparation method therefor and use thereof” (ZHONGRONG KAITE (BEIJING) BIOTECHNOLOGY CO., LTD., priority 2017, dated 2020).
Like-named read-outs stand apart in the source and are kept apart here.

Method: Stability Study of the Hydrogen Sulfate Crystal Form I and Form II of the Compound of Formula I Under High Temperature and High Humidity Conditions
Setting the hydrogen sulfate crystal form I and form II of the compound of formula I at temperature of 60° C. and high humidity (25° C., relative humidity of 90%±5%) respectively for 10 days. Samples were taken on the 0, 5th and 10th days and determined by high performance liquid chromatography to investigate the changes in impurities.
Chromatographic conditions: Agilent 1100 for high performance liquid chromatography; chromatographic column ULTRON ES-OVM (5 μm, 4.6 mm×150 mm); mobile phase 0.01 mol/L potassium dihydrogen phosphate aqueous solution-acetonitrile (80:20); detection wavelength 220 nm; column temperature 30° C.; flow rate 1.0 mL/min; injection volume 10 μL.
Test method: accurately weighting 5 mg of the test probe, placing it in a 10 mL volumetric flask, adding 1 mL of methanol, dissolving with ultrasound, diluting to the mark with mobile phase and shaking to make a test solution with a concentration of 0.5 mg/mL. Precisely injecting 10 μL of the test solution into the liquid chromatography, recording the chromatogram and calculating the total content of impurities according to peak area normalization method.

| Structure (SMILES) | Total Impurity Content (peak area %) (High Humidity (25° C., relative humidity of 90%±5%), 0 day, listed as I) | Total Impurity Content (peak area %) (High Humidity (25° C., relative humidity of 90%±5%), 5th day, listed as I) | Total Impurity Content (peak area %) (High Humidity (25° C., relative humidity of 90%±5%), 10th day, listed as I) | Total Impurity Growth Rate (High Humidity (25° C., relative humidity of 90%±5%), 10 days, listed as I) [%] | Total Impurity Content (peak area %) (High Temperature (60° C.), 0 day, listed as I) | Total Impurity Content (peak area %) (High Temperature (60° C.), 5th day, listed as I) | Total Impurity Content (peak area %) (High Temperature (60° C.), 10th day, listed as I) | Total Impurity Growth Rate (High Temperature (60° C.), 10 days, listed as I) [%] | Total Impurity Content (peak area %) (High Humidity (25° C., relative humidity of 90%±5%), 0 day, listed as II) | Total Impurity Content (peak area %) (High Humidity (25° C., relative humidity of 90%±5%), 5th day, listed as II) | Total Impurity Content (peak area %) (High Humidity (25° C., relative humidity of 90%±5%), 10th day, listed as II) | Total Impurity Growth Rate (High Humidity (25° C., relative humidity of 90%±5%), 10 days, listed as II) [%] | Total Impurity Content (peak area %) (High Temperature (60° C.), 0 day, listed as II) | Total Impurity Content (peak area %) (High Temperature (60° C.), 5th day, listed as II) | Total Impurity Content (peak area %) (High Temperature (60° C.), 10th day, listed as II) | Total Impurity Growth Rate (High Temperature (60° C.), 10 days, listed as II) [%] | stability compared with the hydrogen sulfate form I (high temperature and high humidity conditions, 10 days) |
| --- | --- | --- | --- | --- | --- | --- | --- | --- | --- | --- | --- | --- | --- | --- | --- | --- | --- |
| [2H]C([2H])([2H])OC(=O)[C@H](c1ccccc1Cl)N1CCc2sccc2C1 [Crystal Form I, Methyl-d3 (2S)-2-(2-chlorophenyl)-2-(6,7-dihydrothieno[3,2-c]pyridin-5(4H)-yl)acetate] | 0.386 | 0.438 | 0.576 | 49.2 | 0.386 | 0.597 | 0.812 | 110 |  |  |  |  |  |  |  |  |  |
| [2H]C([2H])([2H])OC(=O)[C@H](c1ccccc1Cl)N1CCc2sccc2C1 [Crystal Form II, Methyl-d3 (2S)-2-(2-chlorophenyl)-2-(6,7-dihydrothieno[3,2-c]pyridin-5(4H)-yl)acetate] |  |  |  |  |  |  |  |  | 0.372 | 0.409 | 0.533 | 43.3 | 0.372 | 0.526 | 0.737 | 98.1 | better stability |
